{
  "source": "the supplement of paper PMC11208160",
  "data": [
    {"experiment": "recombinant UMI read abundance after kanamycin selection (control-corrected) (log10(CPM+1)); higher = more efficient recombination; extreme values may be limits of the assay; sequences stand for … in AGTGCAGAGAAAATCGGCCAGTTTTCTCTGCCTGCAGTCCGCATGCCGTGGGACCCCTTGGGTTCTAACCTGTTGCCTAGATTTATGCAGCGGACTGCCTTTCTCCCAAAGTGATAAACCGG…AGGTTGGTTTCACT; site = the 11-nt donor", "method_in_brief": "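The measure is log10(CPM+1) for recombinant UMIs. These were PCR-amplified across the donor–target junction and sequenced after Escherichia coli carrying a donor and donor-binding-loop pair library and a target plasmid with T7-inducible IS621 bridge recombinase was plated on IPTG (0.07 mM) plus kanamycin or unselected. CPM were averaged over two replicates and scaled by control-derived factors.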", "values": [
      {"sequence": "CGTTTGGCATGGACCGGTTTTCCCGGTAATCCGTATTTGCT (site CGTTTGGCTGG)", "recombinant UMI read abundance (log10)": 0},
      {"sequence": "GCATGCCCATGGACCGGTTTTCCCGGTAATCCGTATTTGAT (site GCTTGCCCTAT)", "recombinant UMI read abundance (log10)": 0.0139},
      {"sequence": "TTCTTGACATGGACCGGTTTTCCCGGTAATCCGTATTTGCT (site TACTTGACTAG)", "recombinant UMI read abundance (log10)": 0.126},
      {"sequence": "CCCTCGCCATGGACCGGTTTTCCCGGTAATCCGTATTTGCC (site CCCTGGCCTGG)", "recombinant UMI read abundance (log10)": 0},
      {"sequence": "TTCAATTCATGGACCGGTTTTCCCGGTAATCCGTATTTGCC (site TACAATTCTGG)", "recombinant UMI read abundance (log10)": 0},
      {"sequence": "TCCACCGCATGGACCGGTTTTCCCGGTAATCCGTATTTGCG (site ACCACCGCTCG)", "recombinant UMI read abundance (log10)": 0.0347},
      {"sequence": "ACTAGTGCATGGACCGGTTTTCCCGGTAATCCGTATTTGTT (site ACTAGTGCTAT)", "recombinant UMI read abundance (log10)": 0.242},
      {"sequence": "TATCCCGCATGGACCGGTTTTCCCGGTAATCCGTATTTGCC (site TATCCCGCTGG)", "recombinant UMI read abundance (log10)": 1.79},
      {"sequence": "CGCCGGACATGGACCGGTTTTCCCGGTAATCCGTATTTGCT (site CGCCGCACTAG)", "recombinant UMI read abundance (log10)": 0.00459},
      {"sequence": "TTCTTGACATGGACCGGTTTTCCCGGTAATCCGTATTTGCT (site TGCTTGACTAG)", "recombinant UMI read abundance (log10)": 0},
      {"sequence": "GGGCATGCATGGACCGGTTTTCCCGGTAATCCGTATTTGGT (site GCGCATGCTAC)", "recombinant UMI read abundance (log10)": 0.0126},
      {"sequence": "GGGTTCCCATGGACCGGTTTTCCCGGTAATCCGTATTTGTG (site CGGTTCCCTCA)", "recombinant UMI read abundance (log10)": 0.0144},
      {"sequence": "TAATGAGCATGGACCGGTTTTCCCGGTAATCCGTATTTGGG (site TCATGAGCTCC)", "recombinant UMI read abundance (log10)": 0.203},
      {"sequence": "CGCCGTACATGGACCGGTTTTCCCGGTAATCCGTATTTGCT (site CGCCGTACTGG)", "recombinant UMI read abundance (log10)": 0},
      {"sequence": "ATTGGGACATGGACCGGTTTTCCCGGTAATCCGTATTTGGT (site ATTGCGACTAC)", "recombinant UMI read abundance (log10)": 0.021},
      {"sequence": "CTGTACGCATGGACCGGTTTTCCCGGTAATCCGTATTTGTC (site CTGTACGCTGA)", "recombinant UMI read abundance (log10)": 2.56},
      {"sequence": "CGGAATCCATGGACCGGTTTTCCCGGTAATCCGTATTTGTT (site CAGAGTCCTAA)", "recombinant UMI read abundance (log10)": 0.0165},
      {"sequence": "ATCCTAGCATGGACCGGTTTTCCCGGTAATCCGTATTTGAG (site ATCCGAGCTCT)", "recombinant UMI read abundance (log10)": 0.0408},
      {"sequence": "AAAGTGTCATGGACCGGTTTTCCCGGTAATCCGTATTTGAC (site AATGTGTCTGT)", "recombinant UMI read abundance (log10)": 0.497},
      {"sequence": "AGGAAGCCATGGACCGGTTTTCCCGGTAATCCGTATTTGCA (site AGGAAGCCTTG)", "recombinant UMI read abundance (log10)": 0},
      {"sequence": "CAAGGACCATGGACCGGTTTTCCCGGTAATCCGTATTTGGG (site CGAGGACCTCC)", "recombinant UMI read abundance (log10)": 0.0074},
      {"sequence": "GTTCACGCATGGACCGGTTTTCCCGGTAATCCGTATTTGTT (site GTTCACGCTAA)", "recombinant UMI read abundance (log10)": 1},
      {"sequence": "GACCCGTCATGGACCGGTTTTCCCGGTAATCCGTATTTGTG (site GACCCGTCTCA)", "recombinant UMI read abundance (log10)": 1.63},
      {"sequence": "GCTCAGGCATGGACCGGTTTTCCCGGTAATCCGTATTTGTA (site GCTCAGGCTTA)", "recombinant UMI read abundance (log10)": 1.71},
      {"sequence": "CGAGCATCATGGACCGGTTTTCCCGGTAATCCGTATTTGCT (site CGACCATCTAG)", "recombinant UMI read abundance (log10)": 0},
      {"sequence": "TTAGATCCATGGACCGGTTTTCCCGGTAATCCGTATTTGAG (site TTAGATCCTCT)", "recombinant UMI read abundance (log10)": 0.358},
      {"sequence": "ATAAGGCCATGGACCGGTTTTCCCGGTAATCCGTATTTGAA (site ATAAGGCCTAT)", "recombinant UMI read abundance (log10)": 0.00331},
      {"sequence": "CTTGGCCCATGGACCGGTTTTCCCGGTAATCCGTATTTGTA (site CTTGGCCCTTA)", "recombinant UMI read abundance (log10)": 0.0132},
      {"sequence": "CTACTACCATGGACCGGTTTTCCCGGTAATCCGTATTTGCT (site CTTCTACCTAG)", "recombinant UMI read abundance (log10)": 0},
      {"sequence": "TAATGAGCATGGACCGGTTTTCCCGGTAATCCGTATTTGGG (site TAATGAGCTCG)", "recombinant UMI read abundance (log10)": 0.0101},
      {"sequence": "CGATCATCATGGACCGGTTTTCCCGGTAATCCGTATTTGCT (site CGAACATCTGG)", "recombinant UMI read abundance (log10)": 0},
      {"sequence": "CTAAGCACATGGACCGGTTTTCCCGGTAATCCGTATTTGCT (site CTAAGCACTAG)", "recombinant UMI read abundance (log10)": 1.9}
    ]}
  ]
}
